# pIC50: −log10 of the molar value. Read-outs that look alike come from different tables or passages of the source.
# Columns and labels:
# HepG2 cells [1] = assay: HepG2 cell proliferation assay (XTT); format: cell-based, human; conditions: Homo sapiens
# Description: HepG2 cells were obtained from the American Type Culture Collection (ATCC). Normal hepatocyte pool of cells was acquired from Xenotech. Cryopreserved cells in DMEM containing 5% DMSO were thawed and diluted 10-fold in phenol red free DMEM media containing 10% fetal bovine serum, 100 μg/ml penicillin/streptomycin, supplemented with Glutamax™ and sodium pyruvate. Subsequently, cells were centrifuged at 20 g for 10 minutes. The cells were resuspended in the same media with added Revitacell® to a concentration of […]. Ninety-six well cell culture treated flat bottom plates were seeded with 7.5×10^3 cells in 100 μl and incubated at 37° C., 7.5% CO2, >95% relative humidity for 18 hours to allow cellular adhesion after which media was replaced with like media (DMEM, IMDM, Williams E) containing 1 to 20% FBS and various test compounds (10 μg/ml to 100 ng/ml). After 48 hours (2 doublings of cells), sodium; 2-(2-methoxy-4-nitro-5-sulfonatophenyl)-3-(2-methoxy-4-nitro-5-sulfophenyl)-N-phenyltetrazol-3-ium-5-carboximidate (XTT) (300 μg/ml) was added, and cells incubated for 2 hours. Formazan production was measured at 450 nm on a Varioskan lux spectrophotometer. Non-specific absorption was measured at 660 nm and subtracted from the reference measurement at 450 nm. Experiments were performed in triplicates (n=3). […]
# The objectives of this example are to, first, establish the procedure of a two-component interaction study; and second, establish a method of analysis to identify potential interactions among the two components/compounds. […] Following 48 hours of incubation, the IC50 values of various mixtures were obtained and compared with the pure compound's IC50 values and predicted/calculated IC50 values for the various mixtures. […]
# Samples from the serial dilutions were analyzed by LC-MS/MS to orthogonally confirm concentrations. […]
# To assess potential interactions, the IC50 values for individual cannabinoids in the control lanes were calculated and used to predict and IC50 value for the summation of their individual components.
# HepG2 cells [2] = assay: rtPCR gene expression analysis (TaqMan array card); format: cell-based, human; conditions: 6 h at IC50 concentration, relative to negative control
# Description: Target cancer gene pathways were analyzed using a custom Taqman® array card exploring 90 unique genes associated with cancer related pathways (Kanehisa, Goto et al. 2010).
# Two million HepG2 cells in IMDM media with 20% FBS, and 1% ethanol were seeded in T75 flasks and incubated at 37° C., 7.5% CO2 until 70-80% confluent (approx. […]). […] Untreated cells were included as a negative control. Glyceraldehyde-3-phosphate dehydrogenase (GAPDH) was included as an endogenous control and used for normalization of the data.
# Following a 6-hour incubation with the test compounds, the RNA was extracted using Invitrogen's Dynabead mRNA DIRECT kit using the recommended protocol to provide 50 μL of a purified mRNA solution. Fifty μL of RT master mix was mixed into the mRNA solution and the mixture left to react at 37° C. for 60 minutes. Reverse transcriptase inactivation was performed at 95° C. for 5 minutes and the resulting cDNA samples were kept at 4° C. until use. Fifty-five microliters of TaqMan Fast Advance master mix were added to an equal amount of cDNA sample containing 1 μg/100 μl of cDNA, which was loaded into each card reservoir. The cards were centrifuged twice at 1200 RPM for 3 minutes in a Legend XFR centrifuge and the rtPCR reaction was conducted in a QuantStudio7 PCR instrument using the recommended settings with 40 amplification cycles. Data processing was done using ThermoFisher's Connect™ application.
# [3] = sorafenib, cited from earlier work
# [4] = Clinical study, patients; cited from earlier work
structure (smiles),measurement,setting,value
CNC(=O)c1cc(Oc2ccc(NC(=O)Nc3ccc(Cl)c(C(F)(F)F)c3)cc2)ccn1 [Sorafenib],pIC50,"HepG2 cells [1]; IMDM media with 20% FBS and 1% ethanol, read-out: predetermined IC50 concentrations",4.92
same,IC50,"HepG2 cells [1]; XTT, DMEM media with 20% FBS, 48 hour treatment, read-out: IC50 HepG2",9.8 µg/mL
same,ΔΔCt VEGFA,HepG2 cells [2]; Angiogenesis,−2.101
same,ΔΔCt CAMK1,HepG2 cells [2]; Ca Signaling,−1.249
same,ΔΔCt BAD,HepG2 cells [2]; Cell Cycle,−1.712
same,ΔΔCt BAX,HepG2 cells [2]; Cell Cycle,−1.835
same,ΔΔCt BCL2L1,HepG2 cells [2]; Cell Cycle,−1.67
same,ΔΔCt BECN1,HepG2 cells [2]; Cell Cycle,−1.627
same,ΔΔCt CCND2,HepG2 cells [2]; Cell Cycle,−2.012
same,ΔΔCt CDK2,HepG2 cells [2]; Cell Cycle,−1.072
same,ΔΔCt CDK4,HepG2 cells [2]; Cell Cycle,−1.315
same,ΔΔCt CDK6,HepG2 cells [2]; Cell Cycle,−1.273
same,ΔΔCt MAX,HepG2 cells [2]; Cell Cycle,−1.278
same,ΔΔCt MNT,HepG2 cells [2]; Cell Cycle,−1.155
same,ΔΔCt CTNNB1,HepG2 cells [2]; Cellular Adhesion,−1.355
same,ΔΔCt MITF,HepG2 cells [2]; Drug Resistance,−2.782
same,ΔΔCt TEAD2,HepG2 cells [2]; HIPPO,−1.447
same,ΔΔCt SMO,HepG2 cells [2]; Hedge Hog signaling,−1.125
same,ΔΔCt STAT1,HepG2 cells [2]; JAK-STAT,−1.284
same,ΔΔCt ERBB2,HepG2 cells [2]; MAP kinase,2.729
same,ΔΔCt MAP1LC3A,HepG2 cells [2]; MAP kinase,−1.658
same,ΔΔCt MAP2K2,HepG2 cells [2]; MAP kinase,−1.241
same,ΔΔCt MAP3K1,HepG2 cells [2]; MAP kinase,−2.162
same,ΔΔCt MAPK8,HepG2 cells [2]; MAP kinase,−1.245
same,ΔΔCt RASA1,HepG2 cells [2]; MAP kinase,−2.013
same,ΔΔCt CRK,HepG2 cells [2]; PI3K pathway,−3.778
same,ΔΔCt PIK3C2A,HepG2 cells [2]; PI3K pathway,−2.308
same,ΔΔCt PIK3CA,HepG2 cells [2]; PI3K pathway,−1.501
same,ΔΔCt PTEN,HepG2 cells [2]; PI3K pathway,−1.165
same,ΔΔCt SMAD2,HepG2 cells [2]; TGF signaling,−1.348
same,ΔΔCt GSK3B,HepG2 cells [2]; Wnt signaling,−1.105
same,ΔΔCt ROCK1,HepG2 cells [2]; Wnt signaling,−1.495
same,"Solubility, μg/ml FaSSIF","[3]; fasted simulated intestinal fluid, value marked [1]",3.3 [1] μg/ml
same,F (oral bioavailability),[3]; value marked [1],0.38-0.49[1]
same,ClH (Hepatic clearance),[3]; value marked [3],~0.051-0.066[3] L/min
same,ClTB (Total body clearance),[3]; value marked [3],0.051-0.066[3] L/min
same,"Vd, ss (Volume of distribution at steady state)",[3]; value marked [3],1.01-1.3[3] L/kg
same,t½ (Half-life),[3]; value marked [3],14.09-18.23[3] hours
same,Tmax,[4],2 to 9.5 h
same,Total body clearance,[4],1.83 mL/min/kg
same,Volume of distribution,[4],2.66 L/kg

# — patent publication US20260232699A1, “COMPOSITIONS OF A CANNABINOID AND A KINASE INHIBITOR FOR THE TREATMENT OF CANCER” (SINOVEDA CANADA INC., priority 2023, published 2026)
